In publication PMC3694096, “Development of Novel In Vivo Chemical Probes to Address CNS Protein Kinase Involvement in Synaptic Dysfunction” (PLoS ONE, 2013):
Like-named read-outs stand apart in the source and are kept apart here.

What was measured:
[1] = target: T1, Aurora-C (Homo sapiens, UniProt Q9UQB9); assay: Kinome profiler screen; type: biochemical; settings: at 20,000 nM inhibitor; kinase activity remaining
T1 construct: purchased Millipore KinaseProfiler

[2] = target: T2, Blk (Homo sapiens, UniProt P51451); assay: Kinome profiler screen; type: biochemical; settings: at 20,000 nM inhibitor; kinase activity remaining
T2 construct: purchased Millipore KinaseProfiler

[3] = target: T3, FAK (Homo sapiens, UniProt Q05397); assay: Kinome profiler screen; type: biochemical; settings: at 20,000 nM inhibitor; kinase activity remaining
T3 construct: purchased Millipore KinaseProfiler
T3 sequence (Q05397 whole entry): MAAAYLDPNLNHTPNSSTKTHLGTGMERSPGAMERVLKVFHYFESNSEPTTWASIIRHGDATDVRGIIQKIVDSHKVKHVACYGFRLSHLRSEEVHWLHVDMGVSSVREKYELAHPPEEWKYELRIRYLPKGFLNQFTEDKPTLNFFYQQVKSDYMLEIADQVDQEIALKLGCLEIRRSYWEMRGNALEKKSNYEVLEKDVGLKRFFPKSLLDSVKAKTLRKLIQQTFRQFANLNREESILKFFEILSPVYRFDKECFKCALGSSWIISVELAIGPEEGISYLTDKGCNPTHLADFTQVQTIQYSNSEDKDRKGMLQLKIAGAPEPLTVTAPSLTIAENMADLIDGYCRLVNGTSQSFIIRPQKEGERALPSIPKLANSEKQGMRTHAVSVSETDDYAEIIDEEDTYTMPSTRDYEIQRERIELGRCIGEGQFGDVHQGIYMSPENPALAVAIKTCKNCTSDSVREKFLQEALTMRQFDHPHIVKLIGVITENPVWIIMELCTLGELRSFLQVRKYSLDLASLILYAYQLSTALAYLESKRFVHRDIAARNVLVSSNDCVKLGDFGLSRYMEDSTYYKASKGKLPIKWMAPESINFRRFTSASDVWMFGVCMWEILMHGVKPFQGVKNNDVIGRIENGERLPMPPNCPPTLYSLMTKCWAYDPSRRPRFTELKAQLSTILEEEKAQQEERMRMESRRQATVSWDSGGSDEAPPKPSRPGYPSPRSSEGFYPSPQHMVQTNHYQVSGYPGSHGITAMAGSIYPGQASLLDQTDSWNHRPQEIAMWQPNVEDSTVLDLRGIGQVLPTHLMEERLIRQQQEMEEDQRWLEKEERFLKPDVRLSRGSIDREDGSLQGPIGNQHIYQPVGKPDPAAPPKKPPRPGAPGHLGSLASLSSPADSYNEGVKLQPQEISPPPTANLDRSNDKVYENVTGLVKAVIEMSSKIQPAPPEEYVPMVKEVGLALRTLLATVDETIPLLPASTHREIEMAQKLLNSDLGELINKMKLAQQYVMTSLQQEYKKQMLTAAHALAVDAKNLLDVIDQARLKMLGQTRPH

[4] = target: T4, Fyn (Homo sapiens, UniProt P06241); assay: Kinome profiler screen; type: biochemical; settings: at 20,000 nM inhibitor; kinase activity remaining
T4 construct: purchased Millipore KinaseProfiler
T4 sequence (P06241 whole entry): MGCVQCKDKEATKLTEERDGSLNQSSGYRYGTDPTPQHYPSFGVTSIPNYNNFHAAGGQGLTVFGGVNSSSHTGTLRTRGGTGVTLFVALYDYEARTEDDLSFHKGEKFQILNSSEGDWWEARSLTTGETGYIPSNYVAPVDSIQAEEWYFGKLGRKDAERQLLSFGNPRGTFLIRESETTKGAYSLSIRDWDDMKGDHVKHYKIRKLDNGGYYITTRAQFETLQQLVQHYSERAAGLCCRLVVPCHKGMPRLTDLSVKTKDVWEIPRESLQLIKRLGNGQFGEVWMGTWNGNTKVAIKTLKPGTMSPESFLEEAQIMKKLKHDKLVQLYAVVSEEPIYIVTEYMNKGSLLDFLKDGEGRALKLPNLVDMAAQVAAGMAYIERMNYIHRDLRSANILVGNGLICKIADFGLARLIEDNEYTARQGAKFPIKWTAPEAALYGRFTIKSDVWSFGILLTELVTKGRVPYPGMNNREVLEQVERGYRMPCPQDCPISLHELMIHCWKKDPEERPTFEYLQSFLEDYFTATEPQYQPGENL

[5] = target: T5, MAPKAP-K3 (Homo sapiens, UniProt Q16644); assay: Kinome profiler screen; type: biochemical; settings: at 20,000 nM inhibitor; kinase activity remaining
T5 construct: purchased Millipore KinaseProfiler
T5 sequence (Q16644 whole entry): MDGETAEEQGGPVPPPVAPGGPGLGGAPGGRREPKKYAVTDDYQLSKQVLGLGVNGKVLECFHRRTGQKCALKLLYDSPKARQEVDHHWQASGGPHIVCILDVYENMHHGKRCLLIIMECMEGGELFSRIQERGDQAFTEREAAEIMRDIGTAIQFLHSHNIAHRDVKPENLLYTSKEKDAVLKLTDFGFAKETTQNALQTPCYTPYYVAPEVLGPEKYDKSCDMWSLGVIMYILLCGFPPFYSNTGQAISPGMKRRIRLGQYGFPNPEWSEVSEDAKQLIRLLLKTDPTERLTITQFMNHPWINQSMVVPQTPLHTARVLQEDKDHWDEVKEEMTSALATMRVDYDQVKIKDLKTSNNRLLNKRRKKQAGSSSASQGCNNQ

[6] = test system: MLCK; assay: Kinome profiler screen; type: biochemical; settings: at 20,000 nM inhibitor; kinase activity remaining
[7] = target: T6, mTOR/FKBP12 (Homo sapiens, UniProt P42345); assay: Kinome profiler screen; type: biochemical; settings: at 20,000 nM inhibitor; kinase activity remaining
T6 construct: purchased Millipore KinaseProfiler
T6 sequence (P42345 1362-2549 limits assumed): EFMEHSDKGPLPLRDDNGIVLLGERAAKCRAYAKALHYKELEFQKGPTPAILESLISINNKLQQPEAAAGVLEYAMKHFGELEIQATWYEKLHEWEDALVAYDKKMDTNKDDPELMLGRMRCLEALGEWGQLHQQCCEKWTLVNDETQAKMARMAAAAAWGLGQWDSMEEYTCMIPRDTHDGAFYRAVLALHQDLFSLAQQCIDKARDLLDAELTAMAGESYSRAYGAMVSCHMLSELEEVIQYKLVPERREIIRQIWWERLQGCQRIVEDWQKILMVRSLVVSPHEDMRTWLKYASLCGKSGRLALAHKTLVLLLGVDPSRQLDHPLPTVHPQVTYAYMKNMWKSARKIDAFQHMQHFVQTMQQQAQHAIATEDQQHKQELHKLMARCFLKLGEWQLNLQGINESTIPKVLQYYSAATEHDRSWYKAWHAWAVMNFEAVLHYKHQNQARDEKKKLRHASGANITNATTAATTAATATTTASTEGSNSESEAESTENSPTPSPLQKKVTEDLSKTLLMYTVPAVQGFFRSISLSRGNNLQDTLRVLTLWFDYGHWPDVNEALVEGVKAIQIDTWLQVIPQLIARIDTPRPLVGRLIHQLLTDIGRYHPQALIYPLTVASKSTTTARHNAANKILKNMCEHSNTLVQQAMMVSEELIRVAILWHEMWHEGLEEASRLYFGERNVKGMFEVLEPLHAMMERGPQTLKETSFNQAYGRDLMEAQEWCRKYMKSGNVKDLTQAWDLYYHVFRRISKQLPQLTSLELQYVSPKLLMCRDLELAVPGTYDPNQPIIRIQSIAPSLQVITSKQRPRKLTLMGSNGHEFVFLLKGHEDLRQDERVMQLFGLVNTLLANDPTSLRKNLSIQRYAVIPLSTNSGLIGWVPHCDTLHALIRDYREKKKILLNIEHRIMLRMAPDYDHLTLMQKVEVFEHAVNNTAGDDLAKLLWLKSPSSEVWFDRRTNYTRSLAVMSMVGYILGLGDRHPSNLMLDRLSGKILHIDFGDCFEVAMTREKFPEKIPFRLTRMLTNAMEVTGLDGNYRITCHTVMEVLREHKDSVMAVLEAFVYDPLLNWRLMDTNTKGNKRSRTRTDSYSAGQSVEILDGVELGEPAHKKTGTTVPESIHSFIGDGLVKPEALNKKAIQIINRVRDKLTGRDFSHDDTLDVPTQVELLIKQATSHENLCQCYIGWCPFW

[8] = test system: PI3 Kinase (p110α (H1047R)/p85α); assay: Kinome profiler screen; type: biochemical; settings: at 20,000 nM inhibitor; kinase activity remaining
[9] = target: T7, PI3 Kinase (p110α (E542K)/p85α) (Homo sapiens, UniProt P42336, E542K); assay: Kinome profiler screen; type: biochemical; settings: at 20,000 nM inhibitor; kinase activity remaining
T7 construct: purchased Millipore KinaseProfiler

[10] = target: T8, PI3 Kinase (p110α (H1047R)/p85α) (Homo sapiens, UniProt P42336, H1047R); assay: Kinome profiler screen; type: biochemical; settings: at 20,000 nM inhibitor; kinase activity remaining
T8 construct: purchased Millipore KinaseProfiler

[11] = target: T9, PI3 Kinase (p110α (E545K)/p85α) (Homo sapiens, UniProt P42336, E545K); assay: Kinome profiler screen; type: biochemical; settings: at 20,000 nM inhibitor; kinase activity remaining
T9 construct: purchased Millipore KinaseProfiler

[12] = target: T10, PI3 Kinase (p110α/p85α) (Homo sapiens, UniProt P42336); assay: Kinome profiler screen; type: biochemical; settings: at 20,000 nM inhibitor; kinase activity remaining
T10 construct: purchased Millipore KinaseProfiler

[13] = target: T11, PI3 kinase (p110α/p65α) (Homo sapiens, UniProt P42336); assay: Kinome profiler screen; type: biochemical; settings: at 20,000 nM inhibitor; kinase activity remaining
T11 construct: purchased Millipore KinaseProfiler

[14] = target: T12, SAPK3 (SAPK=p38MAPK) (Homo sapiens, UniProt P53778); assay: Kinome profiler screen; type: biochemical; settings: at 20,000 nM inhibitor; kinase activity remaining
T12 construct: purchased Millipore KinaseProfiler

[15] = target: T13, SAPK4 (SAPK=p38MAPK) (Homo sapiens, UniProt O15264); assay: Kinome profiler screen; type: biochemical; settings: at 20,000 nM inhibitor; kinase activity remaining
T13 construct: purchased Millipore KinaseProfiler
T13 sequence (O15264 whole entry): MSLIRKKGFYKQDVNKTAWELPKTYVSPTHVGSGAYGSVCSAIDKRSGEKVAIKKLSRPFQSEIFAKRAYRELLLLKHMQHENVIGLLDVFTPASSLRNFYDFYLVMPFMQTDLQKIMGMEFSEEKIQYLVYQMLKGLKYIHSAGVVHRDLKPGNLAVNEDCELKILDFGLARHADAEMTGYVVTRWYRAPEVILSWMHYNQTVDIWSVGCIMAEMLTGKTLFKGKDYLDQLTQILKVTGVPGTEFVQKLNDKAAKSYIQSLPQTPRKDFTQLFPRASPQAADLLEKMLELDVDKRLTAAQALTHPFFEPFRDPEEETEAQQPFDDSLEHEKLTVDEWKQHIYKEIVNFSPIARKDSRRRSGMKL

[16] = target: T14, TAO3 (Homo sapiens, UniProt Q9H2K8); assay: Kinome profiler screen; type: biochemical; settings: at 20,000 nM inhibitor; kinase activity remaining
T14 construct: purchased Millipore KinaseProfiler
T14 sequence (Q9H2K8 whole entry): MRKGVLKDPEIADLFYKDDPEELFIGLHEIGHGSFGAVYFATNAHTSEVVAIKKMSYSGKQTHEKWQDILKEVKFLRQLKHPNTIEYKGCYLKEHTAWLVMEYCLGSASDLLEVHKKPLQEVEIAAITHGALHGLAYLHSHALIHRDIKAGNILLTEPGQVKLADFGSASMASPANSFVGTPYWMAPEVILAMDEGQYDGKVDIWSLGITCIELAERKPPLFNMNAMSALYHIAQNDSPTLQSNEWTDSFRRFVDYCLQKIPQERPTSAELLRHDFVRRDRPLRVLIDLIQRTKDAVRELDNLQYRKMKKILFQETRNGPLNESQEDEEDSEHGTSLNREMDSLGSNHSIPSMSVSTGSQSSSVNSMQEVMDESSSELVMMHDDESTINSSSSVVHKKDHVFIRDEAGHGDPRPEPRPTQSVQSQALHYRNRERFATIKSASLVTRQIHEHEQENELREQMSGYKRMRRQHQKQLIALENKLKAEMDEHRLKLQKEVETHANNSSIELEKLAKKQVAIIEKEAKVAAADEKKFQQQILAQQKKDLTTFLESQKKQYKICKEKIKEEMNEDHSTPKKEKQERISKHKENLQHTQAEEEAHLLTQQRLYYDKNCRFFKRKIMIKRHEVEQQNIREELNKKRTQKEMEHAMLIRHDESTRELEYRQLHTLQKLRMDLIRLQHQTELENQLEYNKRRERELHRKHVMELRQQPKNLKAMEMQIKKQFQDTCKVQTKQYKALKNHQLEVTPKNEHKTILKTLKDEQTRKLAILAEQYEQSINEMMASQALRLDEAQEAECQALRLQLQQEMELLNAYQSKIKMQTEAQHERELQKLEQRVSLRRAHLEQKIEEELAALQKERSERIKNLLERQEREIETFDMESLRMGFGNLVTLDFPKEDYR

[17] = test system: panel of 158 GPCRs; assay: Functional GPCR agonist and antagonist screen (calcium flux FLIPR); type: cell-based; settings: outcome in words
[18] = test system: phospho-MK-2 (p38αMAPK substrate) in BV-2 cells; assay: LPS-induced phosphorylation of MK-2 in BV-2 cells; type: cell-based, murine; settings: LPS-stimulated BV-2 cells, 60 min
[19] = test system: primary microglia from wild-type (WT) mice; assay: LPS-induced IL-1β in primary microglia, wild-type; type: cell-based, C57Bl/6 mice; settings: LPS 3 ng/ml, 24 hrs
[20] = target: JNK1α1 (Homo sapiens, UniProt P45983); assay: biochemical
[21] = target: JNK2α2 (Homo sapiens, UniProt P45984); assay: biochemical
Chain of JNK2α2 (P45984 whole entry): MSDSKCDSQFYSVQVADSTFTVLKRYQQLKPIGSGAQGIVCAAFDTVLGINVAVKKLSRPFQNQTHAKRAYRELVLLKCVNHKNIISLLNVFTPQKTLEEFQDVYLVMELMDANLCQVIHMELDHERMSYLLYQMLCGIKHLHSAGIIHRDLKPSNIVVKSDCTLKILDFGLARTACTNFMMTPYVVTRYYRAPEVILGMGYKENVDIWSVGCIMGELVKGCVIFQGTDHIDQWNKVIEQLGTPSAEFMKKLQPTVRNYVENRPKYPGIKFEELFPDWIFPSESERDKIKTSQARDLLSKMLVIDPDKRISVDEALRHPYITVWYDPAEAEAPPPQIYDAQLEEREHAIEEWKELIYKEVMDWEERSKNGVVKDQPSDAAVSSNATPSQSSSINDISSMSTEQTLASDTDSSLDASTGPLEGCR

[22] = target: T15, SAPK2b (SAPK=p38MAPK) (Homo sapiens, UniProt Q15759); assay: Kinome profiler screen; type: biochemical; settings: at 20,000 nM inhibitor; kinase activity remaining
T15 construct: purchased Millipore

[23] = Acid dissociation constant (pKa); type: physicochemical; settings: water with methanol co-solvent, ionic strength 0.15 M KCl, 22±2°C
[24] = target: T16, NLK (Homo sapiens, UniProt Q9UBE8); assay: Kinetic analysis, Ki; type: biochemical; set-up: purchased Millipore
T16 sequence (Q9UBE8 1-527): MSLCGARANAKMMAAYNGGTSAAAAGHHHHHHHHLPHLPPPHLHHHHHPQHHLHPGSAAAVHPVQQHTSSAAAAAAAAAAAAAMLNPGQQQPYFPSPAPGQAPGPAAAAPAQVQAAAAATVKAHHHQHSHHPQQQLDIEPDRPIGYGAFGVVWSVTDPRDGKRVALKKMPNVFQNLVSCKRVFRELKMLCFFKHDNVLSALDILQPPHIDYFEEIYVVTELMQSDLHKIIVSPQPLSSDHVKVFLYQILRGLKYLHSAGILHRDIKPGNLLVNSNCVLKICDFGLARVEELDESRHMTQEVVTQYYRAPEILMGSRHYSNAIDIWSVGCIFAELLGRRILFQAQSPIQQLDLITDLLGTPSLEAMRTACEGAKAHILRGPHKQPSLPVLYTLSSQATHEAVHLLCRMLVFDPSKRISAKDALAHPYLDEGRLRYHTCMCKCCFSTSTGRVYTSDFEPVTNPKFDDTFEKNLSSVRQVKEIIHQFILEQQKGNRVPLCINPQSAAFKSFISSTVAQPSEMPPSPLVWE

Question: For `CN(C)c1cc(-c2ccncc2)c(-c2ccc3ccccc3c2)nn1` [MW108, N, N-dimethyl-6-(naphthalen-2-yl)-5-(pyridin-4-yl)pyridazin-3-amine], which activity at 20 µM [1] is on record?
Answer: The activity at 20 µM was 113%.

Question: And the activity at 20 µM [2]?
Answer: Its activity at 20 µM is 88%.

Question: What about the activity at 20 µM [3] of the same compound?
Answer: The activity at 20 µM was 95%.

Question: What about the activity at 20 µM [4] of the same compound?
Answer: The activity at 20 µM was 95%.

Question: And the activity at 20 µM [5]?
Answer: Its activity at 20 µM is 102%.

Question: What about the “% Activity” value [6] of the same compound?
Answer: The value was 94%.

Question: What about the activity at 20 µM [7] of the same compound?
Answer: Its activity at 20 µM is 100%.

Question: What about the “% Activity” value [8] of the same compound?
Answer: Its value is 99%.

Question: What about the activity at 20 µM [9] of the same compound?
Answer: The activity at 20 µM was 99%.

Question: What about the activity at 20 µM [10] of the same compound?
Answer: The activity at 20 µM was 99%.

Question: And the activity at 20 µM [11]?
Answer: Its activity at 20 µM is 98%.

Question: What about the activity at 20 µM [12] of the same compound?
Answer: Its activity at 20 µM is 98%.

Question: What about the activity at 20 µM [13] of the same compound?
Answer: Its activity at 20 µM is 99%.

Question: What about the activity at 20 µM [14] of the same compound?
Answer: The activity at 20 µM was 87%.

Question: And the activity at 20 µM [15]?
Answer: Its activity at 20 µM is 93%.

Question: And the activity at 20 µM [16]?
Answer: Its activity at 20 µM is 73%.

Question: What about the “Functional GPCR Agonist and Antagonist Screen” value [17] of the same compound?
Answer: The value was “negative”.

Question: What about the “phosphorylation of the p38α substrate MK2” value [18] of the same compound?
Answer: The value was “inhibited phosphorylation of the p38α substrate MK2 in a concentration-dependent manner”.

Question: And the “LPS-induced IL-1β production, WT microglia” value [19]?
Answer: Its value is “inhibited LPS-induced IL-1β production”.

Question: What about the activity at 20 µM [20] of the same compound?
Answer: The activity at 20 µM was 96%.

Question: And the activity at 20 µM [21]?
Answer: Its activity at 20 µM is 76%.

Question: Which activity at 20 µM [3] does the source give for `CN(C)c1cc(-c2ccncc2)c(-c2cccc3ccccc23)nn1` [MW181, N,N-dimethyl-6-(naphthalen-1-yl)-5-(pyridin-4-yl)pyridazin-3-amine] here?
Answer: The activity at 20 µM was 102%.

Question: What about the activity at 20 µM [4] of the same compound?
Answer: The activity at 20 µM was 109%.

Question: What about the activity at 20 µM [5] of the same compound?
Answer: The activity at 20 µM was 99%.

Question: And the activity at 20 µM [7]?
Answer: Its activity at 20 µM is 96%.

Question: What about the activity at 20 µM [22] of the same compound?
Answer: Its activity at 20 µM is 6%.

Question: What about the activity at 20 µM [16] of the same compound?
Answer: Its activity at 20 µM is 88%.

Question: And the pKa ([23]; read-out: pKa (UV method), first value)?
Answer: The pKa was 4.71 ± 0.03.

Question: And the pKa ([23]; read-out: pKa (UV method), second value)?
Answer: The pKa was 3.19 ± 0.09.

Question: What about the pKa ([23]; read-out: pKa (potentiometric method), second value) of the same compound?
Answer: The pKa was under 3.5.

Question: What about the Ki [24] of the same compound?
Answer: Its Ki is 199 nM.
